Source: the supplement of paper PMC10307832

Legend:
Assay in all cases: relative viability (nuclei count vs DMSO), 5 days (fraction); higher = more cells survive
[1] = compound: CC1=C(C(=NN1)C)CC2=C(C3=C(S2)N(C(=O)N(C3=O)C)CC(C)C)C(=O)N4C[C@@H](CO4)O + N=C(N)NC(=N)NCCc1ccccc1 [Phenformin] (partner 250 µM)
How it was run: (§1)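 Cells from lung cancer lines were seeded into 1536-well plates and, one day later, dosed by pin tool. Treatments were either a single drug or a fixed dose of an anchor drug with five library-drug doses (not always all listed) in √10 steps. After 5 days, nuclei were stained in a one-step fixation (final 0.05% Triton X-100, 1% formaldehyde, 1 ug/ml Hoechst) and counted on 4× images, and relative viability is the treated-to-vehicle nuclei ratio, as the median of duplicate plates.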

IDH-C35 + Luminespib = compound: Cc1ccccc1C(C(=O)NC1CCCCC1)N(C(=O)Cn1ccnc1C)c1cccc(F)c1 [IDH-C35] + CCNC(=O)c1noc(-c2cc(C(C)C)c(O)cc2O)c1-c1ccc(CN2CCOCC2)cc1 [Luminespib] (partner 0.01 µM)
How it was run: as §1

IDH-C35 + Alpelisib = compound: Cc1ccccc1C(C(=O)NC1CCCCC1)N(C(=O)Cn1ccnc1C)c1cccc(F)c1 [IDH-C35] + Cc1nc(NC(=O)N2CCC[C@H]2C(N)=O)sc1-c1ccnc(C(C)(C)C(F)(F)F)c1 [Alpelisib] (partner 2 µM)
How it was run: as §1

[2] = compound: CC1=C(C(=NN1)C)CC2=C(C3=C(S2)N(C(=O)N(C3=O)C)CC(C)C)C(=O)N4C[C@@H](CO4)O + CC1(C)CCC(c2ccc(Cl)cc2)=C(CN2CCN(c3ccc(C(=O)NS(=O)(=O)c4ccc(N[C@H](CCN5CCOCC5)CSc5ccccc5)c(S(=O)(=O)C(F)(F)F)c4)cc3)CC2)C1 [Navitoclax] (partner 0.5 µM)
How it was run: as §1

Cell Line | relative viability ([1]; first compound 0.0025 µM) | relative viability ([1]; first compound 0.007906 µM) | relative viability ([1]; first compound 0.025 µM) | relative viability ([1]; first compound 0.07906 µM) | relative viability ([1]; first compound 0.25 µM) | relative viability (IDH-C35 + Luminespib; first compound 0.08 µM) | relative viability (IDH-C35 + Luminespib; first compound 0.253 µM) | relative viability (IDH-C35 + Luminespib; first compound 0.8 µM) | relative viability (IDH-C35 + Luminespib; first compound 2.53 µM) | relative viability (IDH-C35 + Luminespib; first compound 8 µM) | relative viability (IDH-C35 + Alpelisib; first compound 0.08 µM) | relative viability (IDH-C35 + Alpelisib; first compound 0.253 µM) | relative viability (IDH-C35 + Alpelisib; first compound 0.8 µM) | relative viability (IDH-C35 + Alpelisib; first compound 2.53 µM) | relative viability (IDH-C35 + Alpelisib; first compound 8 µM) | relative viability ([2]; first compound 0.0025 µM) | relative viability ([2]; first compound 0.007906 µM) | relative viability ([2]; first compound 0.025 µM) | relative viability ([2]; first compound 0.07906 µM) | relative viability ([2]; first compound 0.25 µM)
NCI-H2347 | 0.455 | 0.429 | 0.295 | 0.275 | 0.264 | 0.653 | 0.575 | 0.48 | 0.508 | 0.369 | 1.14 | 1.12 | 1.03 | 1.16 | 1.03 | 0.86 | 0.691 | 0.828 | 0.69 | 0.771
NCI-H2405 | 0.348 | 0.286 | – | 0.277 | 0.268 | 0.755 | 0.63 | 0.614 | 0.706 | 0.64 | 0.927 | 0.815 | 0.777 | – | 0.736 | 0.795 | 0.652 | – | 0.983 | 0.864
NCI-H3122 | 0.385 | 0.365 | 0.364 | 0.392 | 0.375 | 0.0958 | 0.105 | 0.0707 | 0.106 | 0.0868 | 0.904 | 0.739 | 0.729 | 0.78 | 0.849 | 1.02 | 1.04 | 0.996 | 1.01 | 0.995
PC-3 [JPC-3] | 0.467 | 0.461 | 0.477 | 0.461 | 0.447 | 0.737 | 0.596 | 0.728 | 0.771 | 0.692 | 1.08 | 1.04 | 0.988 | 1.08 | 1.04 | 0.898 | 0.795 | 0.83 | 0.827 | 0.906
PC-14 | 0.548 | 0.585 | 0.317 | 0.586 | 0.74 | 0.148 | 0.154 | 0.177 | 0.243 | 0.198 | 1.02 | 0.956 | 0.959 | 0.927 | 0.758 | 1.02 | 1.09 | 1.02 | 1 | 1.03
RERF-LC-KJ | 0.434 | 0.46 | 0.431 | 0.428 | 0.481 | 1.21 | 1.34 | 1.22 | 1.17 | 1.19 | 0.824 | 0.827 | 0.853 | 0.73 | 0.886 | 1.18 | 0.99 | 1.01 | 0.713 | 0.897
SK-LU-1 | 0.338 | 0.234 | 0.191 | 0.202 | 0.223 | 0.219 | 0.207 | 0.188 | 0.225 | 0.259 | 0.993 | 0.918 | 1.29 | 1.11 | 0.934 | 0.717 | 0.662 | 0.528 | 0.744 | 0.545
SK-MES-1 | 0.701 | 0.671 | 0.629 | 0.686 | 0.704 | 0.701 | 0.939 | 0.855 | 0.861 | 0.749 | 1.02 | 1.01 | 0.873 | 0.887 | 0.833 | 1.3 | 1.42 | 1.12 | 1.28 | 1.33
SW 1573 | 0.239 | 0.236 | 0.115 | 0.123 | 0.117 | 0.136 | 0.218 | 0.257 | 0.442 | 0.248 | 0.745 | 0.699 | 0.685 | 0.692 | 0.754 | 0.978 | 1.1 | 0.927 | 0.929 | 1.12
